The values below come from PMC6812009, “Covalent Aurora A regulation by the metabolic integrator coenzyme A” (Redox Biology, 2019).

The target in test [1] is T1, Aurora A (inactive), unphosphorylated (PP1-treated) (Homo sapiens, UniProt O14965).
T1 construct: For enzyme and DSF assays, full-length human Aurora A and Aurora B and 1–43 TPX2 were produced; made in house; host or cells: E. coli
T1 sequence (O14965 1-403): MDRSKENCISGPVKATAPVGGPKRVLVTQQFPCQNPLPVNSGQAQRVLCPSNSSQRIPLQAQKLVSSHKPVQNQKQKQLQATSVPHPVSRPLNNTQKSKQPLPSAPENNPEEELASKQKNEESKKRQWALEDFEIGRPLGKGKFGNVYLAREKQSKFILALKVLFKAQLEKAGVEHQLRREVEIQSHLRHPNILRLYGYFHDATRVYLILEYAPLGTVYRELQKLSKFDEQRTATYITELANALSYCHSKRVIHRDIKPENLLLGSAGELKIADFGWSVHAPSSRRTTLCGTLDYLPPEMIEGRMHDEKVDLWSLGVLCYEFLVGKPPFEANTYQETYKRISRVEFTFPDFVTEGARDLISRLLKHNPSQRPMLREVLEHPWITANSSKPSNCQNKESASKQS
Description: Lanthascreen Eu Kinase FRET binding assay. The procedure:
(§1) A Lanthascreen Eu Kinase FRET Binding Assay (Invitrogen) was employed to determine IC50 values for the interaction of Aurora A with CoA, dpCoA, ATP, and ADP. […] Recombinant Aurora A was incubated with Europium-conjugated anti-histidine tag antibody and an Alexa Fluor 647-labelled tracer, which binds to the ATP binding pocket of Aurora A. The close proximity of the anti-histidine (epitope-tag) antibody and the tracer results in a high degree of FRET (fluorescence resonance energy transfer) from the europium donor fluorophore to the Alexa Fluor 647 acceptor fluorophore. ATP-competitive inhibitors, such as CoA, displace the tracer from the active site, causing a loss of FRET signal. Assay set-up was performed as described by the manufacturer. Briefly, the time-resolved fluorescence resonance energy transfer assay (TR-FRET) was performed in black, low volume 384 well plates (Corning). Each well contained 5 nM kinase, 2 nM Eu-anti-His antibody and 10 nM kinase tracer 236 in kinase buffer A (50 mM Hepes pH 7.5, 10 mM MgCl2, 1 mM […], 0.01% (v/v) Brij-35), varying amounts of CoA, dpCoA, ATP, and ADP. The reaction mix was incubated for 1h at room temperature. The signal was measured at 665/620 nm emission ratio using BMG LABTECH plate reader (PHERAstar). All assays were performed using duplicates. The 11-point response curves were generated using GraphPad Prism software from the inhibition data generated.
(In general: In TR-FRET formats the signal depends on donor and acceptor labels being close together.)

Test [2] has as its target T2, Aurora A (active), T288 phosphorylated (Homo sapiens, UniProt O14965).
T2 construct: For enzyme and DSF assays, full-length human Aurora A and Aurora B and 1–43 TPX2 were produced; made in house; host or cells: E. coli
T2 sequence (O14965 1-403): T1 sequence (O14965 1-403)
Put plainly: Lanthascreen Eu Kinase FRET binding assay. The procedure:
as §1

A further test has as its target T3, Aurora A (active) (Homo sapiens, UniProt O14965).
T3 construct: Bacterially expressed full-length His-Aurora A was used to determine the IC50 value for CoA; made in house; host or cells: E. coli BL21 (DE3) pLysS
T3 sequence (O14965 1-403): T1 sequence (O14965 1-403)
Put plainly: In vitro Aurora A kinase assay (γ33P-ATP incorporation into myelin basic protein). In kind it is biochemical. The procedure: Profiling of 117 protein kinases with CoA, dpCoA and ADP was carried out at the International Centre for Protein Kinase Profiling at the University of Dundee. Each compound was tested in vitro, in duplicate, at 100 μM final concentration using recombinant kinases, model substrates and optimal concentrations of ATP. Bacterially expressed full-length His-Aurora A was used to determine the IC50 value for CoA (in the presence or absence of DTT), dpCoA, ADP and desulfo-CoA. The assay was performed in the presence of 5 μM competing ATP. To examine whether the inhibitory effect of CoA on Aurora A is modulated by TPX2, IC50 values for CoA were also generated in the presence and absence of 1 μg TPX2 (residues 1–43) fragment.
Aurora A kinase activity was assayed by measuring incorporation of γ^33P-ATP into myelin basic protein (Sigma). Purified recombinant protein (100 ng) was incubated at room temperature for 30 min in a total volume of 15 μl containing 50 mM HEPES pH 7.5, 10 mM MgCl2, 1 mM EGTA, 0.05% Brij-35, 0.5 mg/ml myelin basic protein, and 5 μM γ^33P-ATP (100–10,000 dpm/pmol). The reaction was stopped by spotting the reaction mixture onto squares of P81 phosphocellulose ion exchange paper (Whatmann), which were then immersed in 1.5% (v/v) phosphoric acid. After washing twice in 1% phosphoric acid followed by two washes in distilled water, the papers were air dried and radioactivity was counted by a scintillation counter and recorded by Quantasmart version 2.03.

The next test has as its target T4, EPH-B4 (Homo sapiens, UniProt P54760).
T4 sequence (P54760 16-987): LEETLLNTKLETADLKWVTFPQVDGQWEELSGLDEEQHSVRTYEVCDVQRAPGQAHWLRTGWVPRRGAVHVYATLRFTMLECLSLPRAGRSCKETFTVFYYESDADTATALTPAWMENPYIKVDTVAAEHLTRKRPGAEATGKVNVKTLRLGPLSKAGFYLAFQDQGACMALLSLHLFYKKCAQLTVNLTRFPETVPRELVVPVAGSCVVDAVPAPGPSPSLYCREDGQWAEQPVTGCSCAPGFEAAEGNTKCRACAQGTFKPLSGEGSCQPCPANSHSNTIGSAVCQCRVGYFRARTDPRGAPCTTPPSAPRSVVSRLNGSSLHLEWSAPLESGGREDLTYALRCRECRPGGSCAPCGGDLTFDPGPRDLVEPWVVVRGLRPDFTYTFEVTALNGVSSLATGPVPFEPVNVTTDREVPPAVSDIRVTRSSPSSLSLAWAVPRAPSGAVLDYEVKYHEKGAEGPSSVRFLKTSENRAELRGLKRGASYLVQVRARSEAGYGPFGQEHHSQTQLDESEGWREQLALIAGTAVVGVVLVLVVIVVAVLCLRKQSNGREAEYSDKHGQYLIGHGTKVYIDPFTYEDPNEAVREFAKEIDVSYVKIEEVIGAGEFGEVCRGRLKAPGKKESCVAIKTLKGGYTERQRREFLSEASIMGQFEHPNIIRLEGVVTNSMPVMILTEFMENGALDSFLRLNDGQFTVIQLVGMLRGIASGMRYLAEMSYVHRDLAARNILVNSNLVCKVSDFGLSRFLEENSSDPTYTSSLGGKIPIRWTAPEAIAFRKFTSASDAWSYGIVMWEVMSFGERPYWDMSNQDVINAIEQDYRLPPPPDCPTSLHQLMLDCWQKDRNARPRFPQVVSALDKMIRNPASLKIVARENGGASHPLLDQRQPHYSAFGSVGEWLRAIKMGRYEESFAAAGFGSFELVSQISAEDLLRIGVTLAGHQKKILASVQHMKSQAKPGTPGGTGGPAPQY
Description: Kinase profiling screen (radioactive filter-binding assay). In kind it is biochemical. The settings on record: 100 μM compound, 50 μM ATP; read-out: Kinase activity, % of activity in the absence of inhibitor. The gist of the method: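 Panel of 117 recombinant kinases; CoA, dpCoA, ADP each at 100 μM final, duplicates; model substrates, ATP at optimal level.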

Setting [3] is: T288 phosphorylated Aurora A, read-out: Aurora A (active) IC50 (μM), binding assay.
[4] abbreviates: 5 μM competing ATP, read-out: Aurora A (active) IC50 (μM), activity assay.

SMILES strings stand for the structures. Where two headings read alike, the source gives them in different places.

What is called IC50 is the concentration needed to halve the response being measured. On to `Nc1ncnc2c1ncn2C1OC(COP(=O)(O)OP(=O)(O)O)C(O)C1O` (centres unmarked) [ADP], for which the half-maximal inhibitory concentration (IC50) in test [1] was 1.3 µM; in test [2] (setting [3]) it was 170 nM; in test [2] (read-out: IC50 for the interaction of active Aurora A) it was approximately 177000 nM; on Aurora A (active) (setting [4]), 54 µM. Besides, the activity at 100 µM on EPH-B4 worked out at 9.8%.
On to `CC(C)(COP(=O)(O)OP(=O)(O)OC[C@H]1O[C@@H](n2cnc3c(N)ncnc32)[C@H](O)[C@@H]1OP(=O)(O)O)[C@@H](O)C(=O)NCCC(=O)NCCS` [CoA, Coenzyme A], for which the IC50 in test [1] was 0.28 µM; in test [2] (setting [3]), 0.01 nM; on Aurora A (active) (5 μM ATP, 1 mM DTT, read-out: IC50, Aurora A kinase activity in the presence of DTT) it was 47 µM; at Aurora A (active) (5 μM ATP, absence of DTT, read-out: IC50, Aurora A kinase activity), approximately 5 µM; on Aurora A (active) (setting [4]), 5 µM. For the same compound, the “TPX2-induced kinase activation after pre-incubation of Aurora A with CoA” value at Aurora A (active) (100 μM CoA pre-incubation, DTT-sensitive) is “attenuated”. Further, the “Inhibitory effect on Aurora A in the presence of TPX2 1–43 fragment” value on Aurora A (active) (presence of TPX2 (residues 1–43), serial dilutions of CoA) was “completely abrogated the inhibitory effect”. On EPH-B4, the activity at 100 µM amounted to 107%.
As for `CC(C)(COP(=O)(O)OP(=O)(O)OCC1OC(n2cnc3c(N)ncnc32)C(O)C1O)C(O)C(=O)NCCC(=O)NCCS` (centres unmarked) [dpCoA, dephospho-CoA], the results for the half-maximal inhibitory concentration (IC50) (in test [1]; in test [2] (setting [3]); on Aurora A (active) (setting [4])) were more than 100 µM, 0.3 nM and 17 µM, respectively. Moreover, the activity at 100 µM at EPH-B4 turned out to be 62.1%.
